Measured values from ChEMBL document CHEMBL5143740, “Discovery of Novel Phosphoinositide-3-Kinase α Inhibitors with High Selectivity, Excellent Bioavailability, and Long-Acting Efficacy for Gastric Cancer” (J Med Chem, 2022).
Calls of active or inactive are those of the source. No cut-off for these calls is given here.

Tests used:
[1] = biological target: Phosphatidylinositol 4,5-bisphosphate 3-kinase catalytic subunit beta isoform (Homo sapiens, UniProt P42338); experiment: Inhibition of PI3Kbeta (unknown origin) in presence of [33P]-ATP incubated for 2 hrs by hotspot kinase assay
Phosphatidylinositol 4,5-bisphosphate 3-kinase catalytic subunit beta isoform, sequence (P42338 whole entry, canonical isoform): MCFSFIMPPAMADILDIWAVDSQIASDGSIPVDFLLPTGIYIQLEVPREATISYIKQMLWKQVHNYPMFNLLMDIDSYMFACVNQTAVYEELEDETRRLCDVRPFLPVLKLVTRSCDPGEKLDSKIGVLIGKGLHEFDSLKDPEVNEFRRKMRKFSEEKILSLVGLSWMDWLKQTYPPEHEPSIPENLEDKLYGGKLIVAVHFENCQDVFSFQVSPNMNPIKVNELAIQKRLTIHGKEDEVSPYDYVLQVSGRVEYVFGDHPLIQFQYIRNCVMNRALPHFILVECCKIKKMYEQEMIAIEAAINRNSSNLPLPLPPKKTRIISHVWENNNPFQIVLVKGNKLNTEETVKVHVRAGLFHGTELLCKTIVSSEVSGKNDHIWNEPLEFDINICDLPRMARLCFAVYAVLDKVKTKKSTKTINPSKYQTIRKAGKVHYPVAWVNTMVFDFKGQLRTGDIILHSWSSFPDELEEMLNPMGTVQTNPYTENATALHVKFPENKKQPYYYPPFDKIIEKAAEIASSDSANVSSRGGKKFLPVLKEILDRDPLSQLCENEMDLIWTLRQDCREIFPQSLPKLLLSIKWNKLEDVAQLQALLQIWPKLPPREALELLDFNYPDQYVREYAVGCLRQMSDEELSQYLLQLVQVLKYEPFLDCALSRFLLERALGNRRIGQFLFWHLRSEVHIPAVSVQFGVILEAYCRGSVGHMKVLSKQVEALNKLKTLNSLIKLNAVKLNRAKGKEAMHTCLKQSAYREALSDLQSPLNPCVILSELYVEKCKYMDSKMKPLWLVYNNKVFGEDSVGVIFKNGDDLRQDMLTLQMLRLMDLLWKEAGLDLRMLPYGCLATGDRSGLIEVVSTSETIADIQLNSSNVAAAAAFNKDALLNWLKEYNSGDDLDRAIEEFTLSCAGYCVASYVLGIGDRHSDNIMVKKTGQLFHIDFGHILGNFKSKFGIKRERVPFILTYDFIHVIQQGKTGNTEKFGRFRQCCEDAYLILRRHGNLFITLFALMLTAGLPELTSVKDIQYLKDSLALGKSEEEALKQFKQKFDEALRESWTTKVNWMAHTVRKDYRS

Homo sapiens [2] = species on record: Homo sapiens; experiment: Selectivity index, ratio of IC50 for inhibition of PI3Kdelta (unknown origin) to IC50 for inhibition of PI3Kalpha (unknown origin)
Homo sapiens [3] = species on record: Homo sapiens; experiment: Selectivity index, ratio of IC50 for inhibition of PI3Kgamma (unknown origin) to IC50 for inhibition of PI3Kalpha (unknown origin)
MGC-803 [4] = experiment: Antiproliferative activity against human MGC-803 cells assessed as inhibition of cell growth incubated for 72 hrs by CCK8 assay; type: functional, cell-based; details: MGC-803, 72 h
SK-OV-3 = experiment: Antiproliferative activity against human SK-OV-3 cells assessed as inhibition of cell growth incubated for 72 hrs by CCK8 assay; type: functional, cell-based; details: SK-OV-3, 72 h
PC-3 = experiment: Antiproliferative activity against human PC-3 cells assessed as inhibition of cell growth incubated for 72 hrs by CCK8 assay; type: functional, cell-based; details: PC-3, 72 h
MCF7 = experiment: Antiproliferative activity against human MCF7 cells assessed as inhibition of cell growth incubated for 72 hrs by CCK8 assay; type: functional, cell-based; details: MCF7, 72 h
MDA-MB-231 = experiment: Antiproliferative activity against human MDA-MB-231 cells assessed as inhibition of cell growth incubated for 72 hrs by CCK8 assay; type: functional, cell-based; details: MDA-MB-231, 72 h
HepG2 = experiment: Antiproliferative activity against human HepG2 cells assessed as inhibition of cell growth incubated for 72 hrs by CCK8 assay; type: functional, cell-based; details: HepG2, 72 h
RPMI-8226 = experiment: Antiproliferative activity against human RPMI-8226 cells assessed as inhibition of cell growth incubated for 72 hrs by CCK8 assay; type: functional, cell-based; details: RPMI-8226, 72 h
K562 = experiment: Antiproliferative activity against human K562 cells assessed as inhibition of cell growth incubated for 72 hrs by CCK8 assay; type: functional, cell-based; details: K562, 72 h
U-251 = experiment: Antiproliferative activity against human U-251 cells assessed as inhibition of cell growth incubated for 72 hrs by CCK8 assay; type: functional, cell-based; details: U-251, 72 h
MOLT-4 = experiment: Antiproliferative activity against human MOLT-4 cells assessed as inhibition of cell growth incubated for 72 hrs by CCK8 assay; type: functional, cell-based; details: MOLT-4, 72 h
MGC-803 [5] = experiment: Induction of apoptosis in human MGC-803 cells assessed as viable cells at 2 uM incubated for 36 hrs by annexin V-FITC based flow cytometry analysis (reference value: 94.51 %); type: functional; details: read-out: Activity
MGC-803 [6] = experiment: Induction of apoptosis in human MGC-803 cells assessed as late apoptotic cells at 2 uM incubated for 36 hrs by annexin V-FITC based flow cytometry analysis (reference value: 2.61 %); type: functional
MGC-803 [7] = experiment: Induction of apoptosis in human MGC-803 cells assessed as necrotic cells at 2 uM incubated for 36 hrs by annexin V-FITC based flow cytometry analysis (reference value: […]); type: functional
MGC-803 [8] = experiment: Induction of apoptosis in human MGC-803 cells assessed as viable cells at 4 uM incubated for 36 hrs by annexin V-FITC based flow cytometry analysis (reference value: 94.51 %); type: functional; details: read-out: Activity
MGC-803 [9] = experiment: Induction of apoptosis in human MGC-803 cells assessed as necrotic cells at 4 uM incubated for 36 hrs by annexin V-FITC based flow cytometry analysis (reference value: […]); type: functional
MGC-803 [10] = experiment: Induction of apoptosis in human MGC-803 cells assessed as viable cells at 8 uM incubated for 36 hrs by annexin V-FITC based flow cytometry analysis (reference value: 94.51 %); type: functional; details: read-out: Activity
MGC-803 [11] = experiment: Induction of apoptosis in human MGC-803 cells assessed as early apoptotic cells at 8 uM incubated for 36 hrs by annexin V-FITC based flow cytometry analysis (reference value: 2.49 %); type: functional
MGC-803 [12] = experiment: Induction of apoptosis in human MGC-803 cells assessed as late apoptotic cells at 8 uM incubated for 36 hrs by annexin V-FITC based flow cytometry analysis (reference value: 2.61 %); type: functional
MGC-803 [13] = experiment: Induction of apoptosis in human MGC-803 cells assessed as necrotic cells at 8 uM incubated for 36 hrs by annexin V-FITC based flow cytometry analysis (reference value: […]); type: functional
MGC-803 [14] = experiment: Inhibition of cell migration in human MGC-803 cells at 2 to 8 uM incubated for 24 hrs by crystal violet staining based transwell migration assay; type: functional; details: dose 2-8 µM
MGC-803 [15] = experiment: Inhibition of cell invasion in human MGC-803 cells at 2 to 8 uM incubated for 24 hrs by microscopic analysis; type: functional, cell-based; details: dose 2-8 µM
MGC-803 [16] = experiment: Inhibition of PI3K signalling pathway in human MGC-803 cells assessed as reduction in pAKT level at 2 to 8 uM by Western blotting analysis; type: cell-based; details: dose 2-8 µM
[17] = Half life in Sprague-Dawley rat at 1 mg/kg, iv measured after 24 hrs; type: ADME, organism-based; details: in vivo
[18] = Tmax in Sprague-Dawley rat at 1 mg/kg, iv measured after 24 hrs; type: ADME, organism-based; details: in vivo
[19] = Tmax in Sprague-Dawley rat at 10 mg/kg, po measured after 24 hrs; type: ADME, organism-based; details: in vivo
[20] = Cmax in Sprague-Dawley rat at 1 mg/kg, iv measured after 24 hrs; type: ADME, organism-based; design: time 24 hrs, dose 1 mg/kg, route iv; details: in vivo
[21] = Cmax in Sprague-Dawley rat at 10 mg/kg, po measured after 24 hrs; type: ADME, organism-based; design: time 24 hrs, dose 10 mg/kg, route po; details: in vivo
[22] = AUC (0 to t) in Sprague-Dawley rat at 1 mg/kg, iv measured after 24 hrs; type: ADME, organism-based; design: time 24 hrs, dose 1 mg/kg, route iv; details: in vivo
[23] = AUC (0 to t) in Sprague-Dawley rat at 10 mg/kg, po measured after 24 hrs; type: ADME, organism-based; design: dose 10 mg/kg, time 24 hrs, route po; details: in vivo
[24] = AUC (0 to infinitive) in Sprague-Dawley rat at 10 mg/kg, po measured after 24 hrs; type: ADME, organism-based; design: dose 10 mg/kg, time 24 hrs, route po; details: in vivo
[25] = Clearance in Sprague-Dawley rat at 1 mg/kg, iv measured after 24 hrs; type: ADME, organism-based; details: in vivo
MGC-803 [26] = experiment: Antitumor activity against human MGC-803 cells xenografted in BALB/c nude mouse assessed as reduction in tumor volume at 30 mg/kg, po administered every day for 3 weeks by vernier caliper method; type: functional, organism-based
MGC-803 [27] = experiment: Antitumor activity against human MGC-803 cells xenografted in BALB/c nude mouse assessed as reduction in tumor volume at 30 mg/kg, po administered every day for 3 weeks in presence of taxol by vernier caliper method; type: functional, organism-based
MGC-803 [28] = experiment: Antitumor activity against human MGC-803 cells xenografted in BALB/c nude mouse assessed as tumor growth inhibition at 10 mg/kg, ip administered every day for 3 weeks; type: functional; details: MGC-803, 504 h, read-out: TGI
MGC-803 [29] = experiment: Antitumor activity against human MGC-803 cells xenografted in BALB/c nude mouse assessed as tumor growth inhibition at 30 mg/kg, po administered every day for 3 weeks in presence of taxol; type: functional; details: MGC-803, 504 h, read-out: TGI
[30] = Toxicity in BALB/c mouse xenografted with human MG C-803cells assessed as effect on body weight at 10 mg/kg, IP administered every day for 3 week; type: organism-based; details: in vivo, 504 h, time 3 weeks
[31] = biological target: Phosphatidylinositol 4,5-bisphosphate 3-kinase catalytic subunit gamma isoform (Homo sapiens, UniProt P48736)
Phosphatidylinositol 4,5-bisphosphate 3-kinase catalytic subunit gamma isoform, sequence (P48736 whole entry, canonical isoform): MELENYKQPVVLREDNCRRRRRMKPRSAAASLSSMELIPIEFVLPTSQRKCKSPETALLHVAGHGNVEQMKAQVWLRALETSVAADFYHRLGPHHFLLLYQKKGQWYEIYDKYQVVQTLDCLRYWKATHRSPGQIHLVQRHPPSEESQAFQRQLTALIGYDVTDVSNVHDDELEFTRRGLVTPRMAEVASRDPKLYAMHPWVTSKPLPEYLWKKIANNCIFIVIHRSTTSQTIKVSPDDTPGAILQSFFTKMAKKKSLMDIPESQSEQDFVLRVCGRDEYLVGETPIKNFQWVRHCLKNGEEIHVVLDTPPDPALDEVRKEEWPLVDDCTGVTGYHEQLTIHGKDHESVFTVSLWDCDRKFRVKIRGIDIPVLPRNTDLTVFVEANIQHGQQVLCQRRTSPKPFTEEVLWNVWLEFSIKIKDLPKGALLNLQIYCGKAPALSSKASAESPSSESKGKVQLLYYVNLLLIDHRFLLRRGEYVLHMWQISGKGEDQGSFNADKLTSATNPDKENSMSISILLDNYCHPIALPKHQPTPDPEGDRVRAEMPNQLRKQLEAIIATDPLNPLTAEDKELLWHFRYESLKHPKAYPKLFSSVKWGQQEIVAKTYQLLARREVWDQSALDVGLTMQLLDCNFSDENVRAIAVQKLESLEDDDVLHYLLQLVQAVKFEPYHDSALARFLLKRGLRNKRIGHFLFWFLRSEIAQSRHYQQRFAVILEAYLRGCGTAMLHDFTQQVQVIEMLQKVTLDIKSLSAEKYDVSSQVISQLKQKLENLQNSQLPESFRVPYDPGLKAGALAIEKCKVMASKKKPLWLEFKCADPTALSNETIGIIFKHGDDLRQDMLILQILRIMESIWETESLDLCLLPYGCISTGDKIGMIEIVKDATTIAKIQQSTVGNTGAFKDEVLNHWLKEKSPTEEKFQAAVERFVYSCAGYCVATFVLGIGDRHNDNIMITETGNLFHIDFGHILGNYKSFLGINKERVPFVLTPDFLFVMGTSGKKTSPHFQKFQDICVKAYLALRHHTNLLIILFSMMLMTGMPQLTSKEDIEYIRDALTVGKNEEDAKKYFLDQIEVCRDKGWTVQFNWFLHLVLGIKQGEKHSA

Nc1nc2cc(-c3nc(N4CCOCC4)nc(N4CCOCC4)n3)ccc2o1
IC50 [1]: 146 nM | Ratio IC50 (Homo sapiens [2]): 34 | Ratio IC50 (Homo sapiens [3]): 29 | IC50 (MGC-803 [4]): 430 nM | IC50 (SK-OV-3): 430 nM | IC50 (PC-3): 430 nM | IC50 (MCF7): 430 nM | IC50 (MDA-MB-231): 430 nM | IC50 (HepG2): 430 nM | IC50 (RPMI-8226): 430 nM | IC50 (K562): 430 nM | IC50 (U-251): 430 nM | IC50 (MOLT-4): 430 nM | viability at 2 µM (MGC-803 [5]): 87% | Activity (MGC-803 [6]): 4.55% | Activity (MGC-803 [7]): 0.95% | viability at 4 µM (MGC-803 [8]): 62.6% | Activity (MGC-803 [9]): 1.11% | viability at 8 µM (MGC-803 [10]): 37.2% | Activity (MGC-803 [11]): 57.88% | Activity (MGC-803 [12]): 3.81% | Activity (MGC-803 [13]): 1.08% | inhibition (MGC-803 [14]): Active | inhibition (MGC-803 [15]): Active | inhibition (MGC-803 [16]): Active | half-life [17]: 6.29 h | Tmax [18]: 10.8 s | Tmax [19]: 9.33 h | Cmax [20]: 455 ng/mL | Cmax [21]: 2260 ng/mL | AUC(0-t) at 24 h [22]: 2240 ng·h/mL | AUC(0-t) at 24 h [23]: 36700 ng·h/mL | AUC(0-inf) [24]: 38100 ng·h/mL | clearance [25]: 5.72 mL/min/kg | Activity (MGC-803 [26]): Active | Activity (MGC-803 [27]): Active | inhibition in vivo at 10 mg/kg (MGC-803 [28]): 41.5% | inhibition in vivo at 30 mg/kg (MGC-803 [29]): 63.9% | Activity [30]: Non-Toxic | IC50 [31]: 128 nM
